Assay: method code SF, from DOI: 10.1016/0045-6535(88)90210-x

Row | Compound | logP
1 | Oc1cc(Cl)c(Cl)c(Cl)c1Cl | 4.37
2 | OCC(Br)CBr (stereo not drawn) | 0.9
3 | COc1cc(OC)c(Cl)cc1N | 1.45
4 | CC(O)CO (stereo not drawn) | -0.99
5 | Oc1c(I)cc(I)cc1I | 4.5
6 | OCCCl | 0.03
7 | CCc1ccccc1N | 2.04
8 | Cc1ccc(N)cc1Cl | 2.4
9 | CC(C)(C)c1cc(O)cc(C(C)(C)C)c1 | 4.64
10 | Cc1ccc(O)c(N)c1 | 1.11
11 | Cc1ccc(N)c(C)c1 | 2.13
12 | Nc1ccc([N+](=O)[O-])cc1[N+](=O)[O-] | 1.9
13 | NC(=O)Nc1cccc(O)c1 | 0.36

Source: the SangsterLogP compilation
